Source: PMC12494099, “Discovery and Characterization of Novel IKZF1/3 Glue Degraders against Multiple Hematological Cancer Cell Lines” (Oncology Research, 2025)

Experiments:
PLZF = molecular target: T1, PLZF (Homo sapiens, UniProt Q05516); test: MS-based quantitative proteomics in NCI-H929 cells; assay type: cell-based; conditions: NCI-H929, 10 µM
T1 construct: endogenous in cells; host or cells: NCI-H929
Method: (§1) NCI-H929 cells were treated with either 10 μM DMSO or 10 μM MGD-C9 for 4 h. Post-treatment, the cells were washed with PBS (pH = 7.2–7.4, 1×) and then lysed in 8M Urea (UA) (comprising 8M urea, 100 mM Tris-HCl, pH = 8.0). Subsequently, the cell lysate was subjected to centrifugation on a high-speed freezing microcentrifuge (#CF1524R; SCILOGEX, Meriden, CT, USA) at […], and the supernatant was collected. Subsequently, the collected supernatant was treated with 10 mM tris (2-carboxyethyl) phosphine hydrochloride (TCEP) to reduce it for 30 min. Following this, cysteine alkylation was performed using 50 mM 2-chloroacetamide (CAA) for an additional 30 min. The denatured proteins were then digested with trypsin (1 μg/μL) at an enzyme-to-protein ratio of 1:50 and incubated at 37°C overnight. The reaction was stopped by adding 0.1% formic acid (FA). The samples were desalted using 100 μL pipette tips packed with C18 discs (3M, Saint Paul, MN, USA). Prior to sample loading, the tips were conditioned sequentially with 80 μL of acetonitrile (ACN), followed by 80 μL of a 1:1 (v/v) mixture of H2O and ACN, and finally with 80 μL of H2O. The conditioned tips were loaded with peptides. Then, they were washed twice with 80 μL of H2O. After that, the peptides were eluted twice using 80 μL of a solution composed of 50% water and 50% acetonitrile (ACN). The resulting eluates were vacuum-dried and then reconstituted in 0.1% formic acid for the subsequent LC-MS/MS analysis.
(§2) The peptide mixtures were analyzed using an EASY-nLC 1200 liquid chromatography system (Thermo Fisher Scientific, WLM, MA, USA) equipped with a custom-made 15 cm C18 column (150 μm ID, 1.9 μm particle size, 100 Å pore size). Peptide separation was performed over a 75-min gradient at a constant flow rate of 600 nL/min. The gradient profile was as follows: 4%–7% buffer B (1 min), 7%–13% buffer B (6 min), 13%–25% buffer B (38 min), 25%–45% buffer B (22 min), 45%–95% buffer B (1 min), followed 95% buffer B (7-min). The buffers used were Buffer A (0.1% formic acid) and Buffer B (0.1% formic acid in 80% acetonitrile). The peptide mixtures were then analyzed using a Q Exactive HF mass spectrometer (Thermo Fisher Scientific). MS data were acquired in data-dependent acquisition (DDA) mode with a dynamic exclusion duration of 15 s. MS1 scans were acquired in positive-ion mode across a mass-to-charge (m/z) range of 300–1400, with a resolution of 120,000 (at m/z 200) and a maximum injection time of 50 ms. Precursor ions were fragmented using higher-energy collision dissociation (HCD) at 27% normalized collision energy. MS2 spectra were collected with an AGC target of 5.0 × 10^4 and a maximum injection time of 20 ms.
(§3) Label-free MS raw data were processed using MaxQuant (v2.4) against the UniProt Human database (https://www.uniprot.org/, downloaded May 2024; 20,434 entries). A strict false discovery rate (FDR) threshold of ≤0.01 was applied at the spectra, protein, and modification levels. Contaminants and reverse database hits were excluded. Default settings were used for all other parameters. Protein groups output by MaxQuant were further analyzed in R (v4.2.1). Student’s t-test, and p-values < 0.01 were considered statistically significant for statistical analyses and a volcano plot was generated with GraphPad Prism 8.0.

CK1α = molecular target: T2, CK1α (Homo sapiens, UniProt P48729); test: MS-based quantitative proteomics in NCI-H929 cells; assay type: cell-based; conditions: NCI-H929, 10 μM, 4 h; not notably downregulated
T2 construct: endogenous in cells; host or cells: NCI-H929
Method: as §1, §2, §3

T2 sequence (Q96SW2 whole entry partner): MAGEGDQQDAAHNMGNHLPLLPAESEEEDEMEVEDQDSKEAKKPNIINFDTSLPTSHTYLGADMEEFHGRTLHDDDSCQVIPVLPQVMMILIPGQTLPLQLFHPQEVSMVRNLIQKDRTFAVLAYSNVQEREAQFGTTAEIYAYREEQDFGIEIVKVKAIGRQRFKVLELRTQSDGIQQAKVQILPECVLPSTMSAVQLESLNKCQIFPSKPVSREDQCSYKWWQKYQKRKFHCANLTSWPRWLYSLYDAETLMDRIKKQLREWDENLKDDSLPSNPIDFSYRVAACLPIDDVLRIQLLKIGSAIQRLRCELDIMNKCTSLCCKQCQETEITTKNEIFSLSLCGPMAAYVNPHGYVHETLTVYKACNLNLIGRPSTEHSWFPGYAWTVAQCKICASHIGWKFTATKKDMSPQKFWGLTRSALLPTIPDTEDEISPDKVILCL
T2 sequence (Q16531 whole entry partner): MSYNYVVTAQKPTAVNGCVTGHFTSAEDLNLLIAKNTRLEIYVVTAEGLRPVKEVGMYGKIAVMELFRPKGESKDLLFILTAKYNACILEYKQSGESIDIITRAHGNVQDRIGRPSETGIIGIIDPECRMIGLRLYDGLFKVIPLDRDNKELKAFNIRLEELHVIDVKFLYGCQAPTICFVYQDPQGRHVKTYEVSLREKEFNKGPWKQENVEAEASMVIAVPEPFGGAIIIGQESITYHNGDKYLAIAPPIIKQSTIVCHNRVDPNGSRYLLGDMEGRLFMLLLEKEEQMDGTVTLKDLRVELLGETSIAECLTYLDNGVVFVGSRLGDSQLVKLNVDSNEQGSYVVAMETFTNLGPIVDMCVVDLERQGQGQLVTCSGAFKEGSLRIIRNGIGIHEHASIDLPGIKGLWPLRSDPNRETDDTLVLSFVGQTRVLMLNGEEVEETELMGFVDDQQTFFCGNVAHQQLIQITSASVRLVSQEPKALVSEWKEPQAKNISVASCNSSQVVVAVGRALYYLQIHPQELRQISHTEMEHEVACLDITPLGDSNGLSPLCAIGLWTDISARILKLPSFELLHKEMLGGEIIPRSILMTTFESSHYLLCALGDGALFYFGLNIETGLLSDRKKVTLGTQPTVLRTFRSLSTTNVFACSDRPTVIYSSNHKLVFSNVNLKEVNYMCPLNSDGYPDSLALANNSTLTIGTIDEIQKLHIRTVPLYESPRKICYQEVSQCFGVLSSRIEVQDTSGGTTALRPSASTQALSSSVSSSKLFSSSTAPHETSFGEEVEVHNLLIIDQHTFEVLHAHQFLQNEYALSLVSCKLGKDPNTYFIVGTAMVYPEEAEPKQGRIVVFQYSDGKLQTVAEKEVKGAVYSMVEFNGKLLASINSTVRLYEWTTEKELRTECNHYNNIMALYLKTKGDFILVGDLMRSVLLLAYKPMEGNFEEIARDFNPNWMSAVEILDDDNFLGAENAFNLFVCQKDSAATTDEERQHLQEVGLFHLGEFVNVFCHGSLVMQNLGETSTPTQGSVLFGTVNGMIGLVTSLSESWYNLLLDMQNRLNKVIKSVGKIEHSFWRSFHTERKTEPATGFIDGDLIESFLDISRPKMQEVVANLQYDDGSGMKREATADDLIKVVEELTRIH
T2 sequence (P48729 whole entry): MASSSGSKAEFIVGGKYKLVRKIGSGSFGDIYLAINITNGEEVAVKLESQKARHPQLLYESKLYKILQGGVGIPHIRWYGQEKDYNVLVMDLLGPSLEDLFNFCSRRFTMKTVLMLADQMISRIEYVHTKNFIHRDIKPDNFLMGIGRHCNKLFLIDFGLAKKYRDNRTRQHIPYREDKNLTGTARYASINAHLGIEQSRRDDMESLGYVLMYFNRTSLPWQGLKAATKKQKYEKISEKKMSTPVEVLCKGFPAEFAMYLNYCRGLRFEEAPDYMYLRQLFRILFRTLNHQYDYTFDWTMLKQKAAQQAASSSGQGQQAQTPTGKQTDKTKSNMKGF
T1 sequence (Q96SW2 whole entry partner): as the sequence (Q96SW2 whole entry partner) above
T1 sequence (Q16531 whole entry partner): as the sequence (Q16531 whole entry partner) above
T1 sequence (Q05516 whole entry): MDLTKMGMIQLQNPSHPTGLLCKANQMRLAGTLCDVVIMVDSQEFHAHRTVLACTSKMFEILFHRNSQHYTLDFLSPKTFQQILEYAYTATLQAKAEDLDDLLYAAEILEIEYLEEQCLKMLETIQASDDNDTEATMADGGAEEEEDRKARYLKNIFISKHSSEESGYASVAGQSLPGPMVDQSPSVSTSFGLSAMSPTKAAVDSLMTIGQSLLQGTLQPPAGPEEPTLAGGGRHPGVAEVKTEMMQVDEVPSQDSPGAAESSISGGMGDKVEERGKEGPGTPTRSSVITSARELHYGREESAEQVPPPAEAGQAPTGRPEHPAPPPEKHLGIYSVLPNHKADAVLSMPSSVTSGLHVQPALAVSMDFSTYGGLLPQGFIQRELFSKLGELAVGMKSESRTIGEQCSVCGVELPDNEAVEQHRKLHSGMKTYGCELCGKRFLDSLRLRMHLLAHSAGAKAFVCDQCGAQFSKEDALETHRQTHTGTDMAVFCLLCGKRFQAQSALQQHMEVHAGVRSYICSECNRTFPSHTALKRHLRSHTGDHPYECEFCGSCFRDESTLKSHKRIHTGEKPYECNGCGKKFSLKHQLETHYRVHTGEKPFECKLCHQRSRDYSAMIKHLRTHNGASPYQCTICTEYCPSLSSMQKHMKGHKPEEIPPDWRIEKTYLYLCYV

CN1CCN(Cc2cccc(C(=O)NC3CCC(=O)NC3=O)c2F)C(=O)C1 (centres unmarked) [MGD-C9, N-(2,6-dioxopiperidin-3-yl)-2-fluoro-3-((4-methyl-2-oxopiperazin-1-yl)methyl)benzamide]
PLZF level (proteomics) (PLZF): remained unaffected | absolute [log2(fold change)] of CK1α (CK1α): less than 1
